Experimental data as given in patent US20040253257A1, “Biological compositions and methods for treatment of liver cancer” (priority 2003, published 2004).
Like-named read-outs stand apart in the source and are kept apart here.

Tests used:
human liver cancer [1] = test: Swiss mouse model of human liver cancer, growth of tumors; conditions: 31st day from tumor inoculation; 30 days treatment; yeast 0.3 ml oral once per day, CTX 30 mg/kg iv once a week
Source text: The animals were generally anaesthetized. […] Afterwards, the opening was sutured and the mice were put back into the cage.
(§1) The mice injected with tumor cells were divided into 4 experimental groups of ten mice per group and one control group. The four experimental groups were triplicated (i.e., using a total of 120 mice in the experimental groups).
(§2) The mice received the biological compositions, untreated yeast cells, CTX or saline on the same day as the tumor cells were transplanted. The mice in group CK2 also started receiving saline on the same day as the other four groups. The biological compositions, untreated yeast cells and saline were administered orally by a feeding tube and the CTX by intravenous injection for 30 consecutive days.

Liver tumor H-22 [2] = test: C3H mouse model of liver cancer (H-22), growth of tumors; conditions: 31st day from tumor inoculation; 30 days treatment; yeast 0.3 ml oral once per day, CTX 30 mg/kg iv per day
Method: (§3) The biological composition comprising 10^8 cells per ml of activated and conditioned yeast cells of the strain Saccharomyces cerevisiae Hansen strain AS2.503 was prepared by the methods described in Section 5.1 and subsections therein.
as §1, §2

Liver tumor H-22 [3] = conditions: for Number of live animals remaining in the groups after 30 days of treatment: 30 mice per group
Method: (§4) The survival time of mice after tumor injection and treatment was studied.
as §3
The animals were prepared in a similar manner as described in Section 8.1.
(§5) The mice injected with tumor cells were divided into 4 experimental groups of […] per group and one control group. The four experimental groups were triplicated […]. In group 2AY, the mice received 0.3 ml of the biological composition once per day. In group 2NY, the mice received 0.3 ml of the untreated yeast cells once per day. In group 2CTX, the mice were injected intravenously with 30 mg of cyclophosphamide (CTX) per kg body weight per day. In group 2CK1, the mice received 0.3 ml of physiological saline once per day.
as §2, with “2CK2” for “CK2”, “days. The mice were observed over 6 months from the day of their inoculation and survival was recorded.” for “days.”

human liver cancer [4] = conditions: for Number of live animals remaining in the groups after 30 days of treatment: 30 mice per group
Method: as §4
The biological composition comprising […] of activated and conditioned yeast cells of the strain Saccharomyces cerevisiae Hansen strain AS2.503 was prepared by the methods described in Section 5.1 and subsections therein.
The animals were prepared in a similar manner as described in Section 6.1.
as §5, with “weight once a week for four weeks.” for “weight per day.”
as §2, with “2CK2” for “CK2”, “days. The mice were observed over 6 months from the day of their inoculation and survival was recorded. The weight of the mice, the weight of the liver, and the weight of the tumor were determined by standard techniques.” for “days.”

[5] = 0 month after cessation of treatment
[6] = 1 month after cessation of treatment
[7] = 2 months after cessation of treatment
[8] = 3 months after cessation of treatment
[9] = 4 months after cessation of treatment
[10] = 5 months after cessation of treatment
[11] = 6 months after cessation of treatment
[12] = from injection of tumor cells, 30 days treatment
[13] = mice that survived, observed over 6 months

## O=P1(N(CCCl)CCCl)NCCCO1 (stereo not shown) [CTX, cyclophosphamide]
Human liver cancer [1]
  mean weight of liver and standard deviation: 1,372 ± 8 mg
  mean weight of mice and standard deviation: 17 ± 0.9 g
  mean weight of tumor nodules and standard deviation: 249 ± 9 mg
Liver tumor H-22 [2]
  mean weight of liver and standard deviation: 1,351 ± 9 mg
  mean weight of mice and standard deviation: 18.8 ± 0.7 g
  mean weight of tumor nodules and standard deviation: 253 ± 8 mg
Liver tumor H-22 [3]; [5]
  Number of live animals remaining in the groups after 30 days of treatment: 30
Liver tumor H-22 [3]; [6]
  Number of live animals remaining in the groups after 30 days of treatment: 27
Liver tumor H-22 [3]; [7]
  Number of live animals remaining in the groups after 30 days of treatment: 24
Liver tumor H-22 [3]; [8]
  Number of live animals remaining in the groups after 30 days of treatment: 19
Liver tumor H-22 [3]; [9]
  Number of live animals remaining in the groups after 30 days of treatment: 11
Liver tumor H-22 [3]; [10]
  Number of live animals remaining in the groups after 30 days of treatment: 3
Liver tumor H-22 [3]; [11]
  Number of live animals remaining in the groups after 30 days of treatment: 0
Liver tumor H-22 [3]; [12]
  survival of mice bearing liver cancer cells: all died after four months
Liver tumor H-22 [3]; [13]
  mean weight of liver and standard deviation: all animals dead
  mean weight of mice and standard deviation: all animals dead
  mean weight of tumor nodules and standard deviation: all animals dead
Human liver cancer [4]; [5]
  Number of live animals remaining in the groups after 30 days of treatment: 30
Human liver cancer [4]; [6]
  Number of live animals remaining in the groups after 30 days of treatment: 30
Human liver cancer [4]; [7]
  Number of live animals remaining in the groups after 30 days of treatment: 27
Human liver cancer [4]; [8]
  Number of live animals remaining in the groups after 30 days of treatment: 22
Human liver cancer [4]; [9]
  Number of live animals remaining in the groups after 30 days of treatment: 19
Human liver cancer [4]; [10]
  Number of live animals remaining in the groups after 30 days of treatment: 7
Human liver cancer [4]; [11]
  Number of live animals remaining in the groups after 30 days of treatment: 0
Human liver cancer [4]; [12]
  survival of mice bearing liver cancer cells: all died after four months
Human liver cancer [4]; [13]
  mean weight of liver and standard deviation: all animals dead
  mean weight of mice and standard deviation: all animals dead
  mean weight of tumor nodules and standard deviation: all animals dead
